Data: ChEMBL document CHEMBL4052799, “Discovery of orally bioavailable cyclohexanol-based NR2B-selective NMDA receptor antagonists with analgesic activity utilizing a scaffold hopping approach” (Bioorg Med Chem Lett, 2017)

Key:
[1] = biological target: Glutamate receptor ionotropic, NMDA 2B (Rattus norvegicus, UniProt Q00960); test: Displacement of [3H]-ifenprodil from NR2B in Wistar rat brain membrane after 120 mins by liquid scintillation counting analysis; format: cell membranes
[2] = Total clearance in Sprague-Dawley rat at 0.5 mg/kg, iv or 1 mg/kg, po administered through cassette dosing; format: ADME, organism-based; conditions: in vivo
[3] = Oral bioavailability in Sprague-Dawley rat at 1 mg/kg administered through cassette dosing; format: ADME, organism-based; conditions: in vivo
[4] = Ratio of drug level in brain to plasma in Sprague-Dawley rat at 0.5 mg/kg, iv administered through cassette dosing measured after 0.5 hrs; format: ADME, organism-based; conditions: brain and plasma
[5] = biological target: Glutamate receptor ionotropic, NMDA 2B (Mus musculus, UniProt P35438+Q01097); test: Antagonist activity at mouse NR2B expressed in Hek293 cells co-expressing mouse NR1 assessed as inhibition of glutamic acid/glycine-induced intracellular Ca2+ levels measured after 1 day post induction by Fluo-3/AM dye-based fluorescence assay; format: cell-based
[6] = biological target: hERG (KCNH2) (Homo sapiens, UniProt Q12809); test: Inhibition of human ERG expressed in HEK293 cells at 1 uM after 10 mins by whole cell patch clamp method relative to control; format: cell-based; conditions: HEK293 cells that express hERG
[7] = tested on: Mus musculus; test: Analgesic activity in po dosed formalin-induced chronic pain ICR mouse model assessed as reduction in rate of licking time in late phase at 30 mg/kg administered 30 min prior to formalin challenge measured during 10 to 30 mins post formalin challenge relative to control; format: functional
[8] = tested on: Mus musculus; test: Analgesic activity in po dosed formalin-induced chronic pain ICR mouse model assessed as reduction in rate of licking time in early phase at 30 mg/kg administered 30 min prior to formalin challenge measured during first 5 mins post formalin challenge relative to control; format: functional
[9] = tested on: Mus musculus; test: Analgesic activity in po dosed formalin-induced chronic pain ICR mouse model assessed as reduction in rate of licking time in early phase at 50 mg/kg administered 30 min prior to formalin challenge measured during first 5 mins post formalin challenge relative to control; format: functional
[10] = tested on: Mus musculus; test: Analgesic activity in po dosed formalin-induced chronic pain ICR mouse model assessed as reduction in rate of licking time in late phase at 50 mg/kg administered 30 min prior to formalin challenge measured during 10 to 30 mins post formalin challenge relative to control; format: functional

Chain of hERG (KCNH2) (Q12809 whole entry): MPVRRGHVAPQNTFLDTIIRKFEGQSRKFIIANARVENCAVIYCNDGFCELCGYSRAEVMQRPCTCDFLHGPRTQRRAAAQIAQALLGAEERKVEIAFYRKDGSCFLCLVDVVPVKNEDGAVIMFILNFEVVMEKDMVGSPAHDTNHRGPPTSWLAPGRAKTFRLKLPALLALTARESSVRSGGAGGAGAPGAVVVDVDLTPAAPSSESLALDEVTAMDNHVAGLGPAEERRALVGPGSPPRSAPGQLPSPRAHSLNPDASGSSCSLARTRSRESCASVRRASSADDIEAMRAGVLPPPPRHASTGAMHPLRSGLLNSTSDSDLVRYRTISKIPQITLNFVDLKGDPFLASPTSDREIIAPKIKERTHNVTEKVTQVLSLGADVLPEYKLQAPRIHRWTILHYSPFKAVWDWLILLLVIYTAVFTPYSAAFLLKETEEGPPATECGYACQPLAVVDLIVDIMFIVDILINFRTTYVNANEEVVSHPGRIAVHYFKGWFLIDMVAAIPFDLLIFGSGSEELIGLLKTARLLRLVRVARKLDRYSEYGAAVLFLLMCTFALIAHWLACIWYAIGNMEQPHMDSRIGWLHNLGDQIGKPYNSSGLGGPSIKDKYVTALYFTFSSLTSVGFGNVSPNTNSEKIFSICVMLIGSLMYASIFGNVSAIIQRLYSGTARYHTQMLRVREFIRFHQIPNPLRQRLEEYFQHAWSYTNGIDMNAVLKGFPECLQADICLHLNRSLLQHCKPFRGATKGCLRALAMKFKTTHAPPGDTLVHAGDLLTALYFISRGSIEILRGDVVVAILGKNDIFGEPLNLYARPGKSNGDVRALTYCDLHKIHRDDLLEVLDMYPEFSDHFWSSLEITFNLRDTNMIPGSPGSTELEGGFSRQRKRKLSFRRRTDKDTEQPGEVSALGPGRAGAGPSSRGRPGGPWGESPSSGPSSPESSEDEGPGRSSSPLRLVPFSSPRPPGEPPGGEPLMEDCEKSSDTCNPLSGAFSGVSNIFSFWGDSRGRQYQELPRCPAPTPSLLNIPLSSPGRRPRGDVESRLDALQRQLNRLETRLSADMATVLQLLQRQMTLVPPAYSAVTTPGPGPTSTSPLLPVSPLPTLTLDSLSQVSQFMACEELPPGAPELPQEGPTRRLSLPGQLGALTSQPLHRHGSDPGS
Chain of Glutamate receptor ionotropic, NMDA 2B (Rattus norvegicus, UniProt Q00960) (Q00960 whole entry): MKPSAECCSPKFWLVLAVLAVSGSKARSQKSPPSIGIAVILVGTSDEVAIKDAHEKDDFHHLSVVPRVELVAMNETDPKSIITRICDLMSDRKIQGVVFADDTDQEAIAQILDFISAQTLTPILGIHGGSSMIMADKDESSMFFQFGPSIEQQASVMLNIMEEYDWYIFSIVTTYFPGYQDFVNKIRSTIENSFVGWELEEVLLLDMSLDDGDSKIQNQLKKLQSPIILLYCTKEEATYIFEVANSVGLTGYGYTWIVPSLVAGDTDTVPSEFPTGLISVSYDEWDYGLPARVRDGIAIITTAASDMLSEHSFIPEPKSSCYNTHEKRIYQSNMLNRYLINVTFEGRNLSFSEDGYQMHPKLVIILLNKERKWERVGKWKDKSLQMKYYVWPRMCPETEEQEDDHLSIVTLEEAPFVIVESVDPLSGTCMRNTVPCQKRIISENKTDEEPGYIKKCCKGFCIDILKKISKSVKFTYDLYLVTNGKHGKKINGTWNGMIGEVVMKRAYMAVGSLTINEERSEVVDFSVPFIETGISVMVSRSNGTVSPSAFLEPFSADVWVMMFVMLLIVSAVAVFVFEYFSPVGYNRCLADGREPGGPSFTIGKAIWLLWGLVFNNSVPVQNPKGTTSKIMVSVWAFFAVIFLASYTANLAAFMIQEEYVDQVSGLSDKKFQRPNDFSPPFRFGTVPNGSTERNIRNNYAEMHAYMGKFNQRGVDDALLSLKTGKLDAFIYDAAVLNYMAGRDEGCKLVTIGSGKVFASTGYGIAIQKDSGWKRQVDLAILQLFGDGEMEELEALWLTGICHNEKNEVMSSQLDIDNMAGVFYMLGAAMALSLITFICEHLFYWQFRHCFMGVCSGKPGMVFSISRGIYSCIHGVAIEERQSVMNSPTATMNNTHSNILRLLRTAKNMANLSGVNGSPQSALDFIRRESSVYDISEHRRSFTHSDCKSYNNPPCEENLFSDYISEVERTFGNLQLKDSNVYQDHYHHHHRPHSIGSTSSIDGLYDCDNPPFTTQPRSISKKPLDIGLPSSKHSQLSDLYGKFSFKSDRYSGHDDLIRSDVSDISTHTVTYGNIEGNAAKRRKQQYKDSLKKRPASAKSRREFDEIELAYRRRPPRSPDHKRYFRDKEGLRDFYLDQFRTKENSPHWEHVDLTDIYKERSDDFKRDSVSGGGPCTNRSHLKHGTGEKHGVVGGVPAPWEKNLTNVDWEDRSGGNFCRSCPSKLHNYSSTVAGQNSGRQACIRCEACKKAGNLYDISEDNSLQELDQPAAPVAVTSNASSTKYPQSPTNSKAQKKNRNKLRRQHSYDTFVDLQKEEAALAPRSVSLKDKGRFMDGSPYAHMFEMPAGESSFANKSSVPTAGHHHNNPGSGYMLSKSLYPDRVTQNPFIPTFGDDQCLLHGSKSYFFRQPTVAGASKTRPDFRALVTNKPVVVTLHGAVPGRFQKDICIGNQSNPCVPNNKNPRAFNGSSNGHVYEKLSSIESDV
Chain of Glutamate receptor ionotropic, NMDA 2B (Mus musculus, UniProt P35438+Q01097) (Q01097 whole entry, one chain of several): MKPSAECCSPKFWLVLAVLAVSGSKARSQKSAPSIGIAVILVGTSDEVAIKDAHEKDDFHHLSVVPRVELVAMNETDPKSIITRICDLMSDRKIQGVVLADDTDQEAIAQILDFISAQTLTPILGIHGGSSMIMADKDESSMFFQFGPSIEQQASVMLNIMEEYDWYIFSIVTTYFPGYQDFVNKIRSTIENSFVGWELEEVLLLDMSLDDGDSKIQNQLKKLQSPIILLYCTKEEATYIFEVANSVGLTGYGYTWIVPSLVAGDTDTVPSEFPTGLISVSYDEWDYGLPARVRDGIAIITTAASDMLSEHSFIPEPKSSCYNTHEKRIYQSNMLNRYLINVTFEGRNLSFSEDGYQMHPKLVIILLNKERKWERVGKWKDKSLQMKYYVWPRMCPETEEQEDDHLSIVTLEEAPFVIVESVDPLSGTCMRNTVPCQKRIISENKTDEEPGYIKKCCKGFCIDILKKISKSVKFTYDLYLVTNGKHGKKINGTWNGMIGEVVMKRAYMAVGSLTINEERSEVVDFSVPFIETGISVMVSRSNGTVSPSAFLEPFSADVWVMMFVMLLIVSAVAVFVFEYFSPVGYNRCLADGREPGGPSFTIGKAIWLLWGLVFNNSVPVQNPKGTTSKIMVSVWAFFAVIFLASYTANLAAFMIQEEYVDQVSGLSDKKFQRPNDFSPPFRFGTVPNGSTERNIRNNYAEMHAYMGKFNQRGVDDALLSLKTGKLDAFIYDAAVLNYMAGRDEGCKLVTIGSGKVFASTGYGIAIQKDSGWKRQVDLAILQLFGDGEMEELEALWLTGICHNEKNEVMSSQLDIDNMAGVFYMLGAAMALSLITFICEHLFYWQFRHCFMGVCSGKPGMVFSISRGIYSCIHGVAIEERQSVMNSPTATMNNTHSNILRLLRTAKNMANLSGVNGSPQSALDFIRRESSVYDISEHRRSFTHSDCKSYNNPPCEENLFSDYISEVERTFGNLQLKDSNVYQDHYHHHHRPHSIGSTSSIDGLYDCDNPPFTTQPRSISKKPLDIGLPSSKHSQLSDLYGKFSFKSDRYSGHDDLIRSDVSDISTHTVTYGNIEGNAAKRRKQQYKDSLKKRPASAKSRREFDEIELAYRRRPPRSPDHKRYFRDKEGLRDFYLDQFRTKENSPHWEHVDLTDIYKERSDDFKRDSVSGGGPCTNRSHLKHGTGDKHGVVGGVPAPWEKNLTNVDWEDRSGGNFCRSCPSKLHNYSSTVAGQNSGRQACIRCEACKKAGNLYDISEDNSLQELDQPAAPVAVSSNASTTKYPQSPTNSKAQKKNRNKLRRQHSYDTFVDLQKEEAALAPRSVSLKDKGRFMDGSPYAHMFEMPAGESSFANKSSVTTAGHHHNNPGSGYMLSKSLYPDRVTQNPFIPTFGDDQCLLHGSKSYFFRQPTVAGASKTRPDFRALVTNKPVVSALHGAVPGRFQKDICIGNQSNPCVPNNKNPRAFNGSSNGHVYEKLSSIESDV

Row | SMILES | IC50 [1] [nM] | clearance [2] [mL/min/kg] | bioavailability [3] [%] | Kp at 0.5 h [4] | IC50 [5] [nM] | inhibition at 10 min, 1 µM [6] [%] | inhibition in vivo at 30 mg/kg [7] [%] | inhibition in vivo at 30 mg/kg [8] [%] | inhibition in vivo at 50 mg/kg [9] [%] | inhibition in vivo at 50 mg/kg [10] [%]
1 | O=c1ccc(-c2nc(C[C@]3(O)CC[C@@H](Cc4ccc(Cl)cc4)CC3)no2)c[nH]1 | 126 | – | – | – | 158 | – | – | – | – | –
2 | O=c1ccc(-c2cc(C[C@]3(O)CC[C@@H](Cc4ccccc4)CC3)no2)c[nH]1 | 25.1 | 37.6 | 53.1 | 0.34 | 10 | 4.4 | – | – | – | –
3 | O[C@]1(Cc2cc(-c3cn[nH]c3)on2)CC[C@H](Cc2ccc(C(F)(F)F)cc2)CC1 | 100 | 4 | 67.5 | 2.66 | 12.6 | – | 96.5 | 84.8 | – | –
4 | O=c1[nH]c2ccc(-c3cc(C[C@]4(O)CC[C@@H](Cc5ccc(Cl)cc5)CC4)no3)cc2o1 | 200 | – | – | – | 39.8 | – | – | – | – | –
5 | O[C@]1(Cc2cc(-c3cn[nH]c3)on2)CC[C@H](Cc2ccc(F)c(F)c2)CC1 | 79.4 | 15.2 | 67.5 | 1.99 | 39.8 | 15 | – | – | – | –
6 | O[C@]1(Cc2cc(-c3cn[nH]c3)on2)CC[C@H](Cc2ccc(Cl)cc2)CC1 | 39.8 | 11.7 | 72.8 | 1.31 | 6.31 | 32 | – | – | – | –
7 | O=c1[nH]c2ccc(-c3cc(C[C@]4(O)CC[C@@H](Cc5ccccc5)CC4)no3)cc2o1 | 100 | 12.1 | 8.4 | 0.92 | 15.8 | – | – | – | – | –
8 | O=c1ccc(-c2cc(C[C@]3(O)CC[C@@H](Cc4ccc(Cl)cc4)CC3)no2)c[nH]1 | 25.1 | 16.8 | 37.2 | 0.08 | 1 | 23 | – | – | – | –
9 | O=C(C[C@]1(O)CC[C@@H](Cc2ccccc2)CC1)Nc1ccc2[nH]ncc2c1 | 63.1 | 21.5 | 23.7 | 0.9 | 39.8 | 18 | – | – | 59.5 | 74.4
10 | O[C@]1(Cc2cc(-c3cn[nH]c3)on2)CC[C@@H](Cc2ccc(Cl)cc2)CC1 | 631 | – | – | – | 200 | – | – | – | – | –
11 | COc1ccc(C[C@H]2CC[C@](O)(Cc3cc(-c4cn[nH]c4)on3)CC2)cc1 | 39.8 | 61.8 | 23.7 | 1.64 | 25.1 | – | – | – | – | –
12 | O=C(C[C@]1(O)CC[C@@H](Cc2ccccc2)CC1)Nc1ccc2[nH]c(=O)oc2c1 | 15.8 | 34.1 | 47.4 | 0.25 | 0.631 | 13.2 | – | – | 58.1 | 66.7
13 | O[C@]1(Cc2cc(-c3cn[nH]c3)on2)CC[C@H](Cc2ccc(OC(F)(F)F)cc2)CC1 | 79.4 | 6.2 | 121 | 2.51 | 25.1 | – | 95.4 | 76.8 | – | –
14 | O[C@]1(Cc2cc(-c3cn[nH]c3)on2)CC[C@H](Cc2ccccc2)CC1 | 39.8 | 56.5 | 46.3 | 1.44 | 15.8 | 14 | – | – | – | –
15 | O=c1ccc(-c2cc(C[C@]3(O)CC[C@H](Cc4ccc(Cl)cc4)CC3)no2)c[nH]1 | 316 | 6.6 | 38.7 | 0.47 | 63.1 | 29.2 | – | – | – | –
16 | O=C1CCc2cc(NC(=O)C[C@]3(O)CC[C@@H](Cc4ccccc4)CC3)ccc2N1 | 31.6 | 24.4 | 53.4 | 0.18 | 10 | 11.3 | – | – | 1.5 | 25.7
17 | O[C@]1(Cc2cc(-c3cn[nH]c3)on2)CC[C@H](Cc2ccc(F)cc2)CC1 | 12.6 | 30 | 78 | 1.62 | 12.6 | 22.5 | – | – | – | –

More lines, main results first:

Row | IC50 [1] [nM] | clearance [2] [mL/min/kg] | bioavailability [3] [%] | Kp at 0.5 h [4] | IC50 [5] [nM] | SMILES | inhibition at 10 min, 1 µM [6] [%] | inhibition in vivo at 30 mg/kg [7] [%] | inhibition in vivo at 30 mg/kg [8] [%] | inhibition in vivo at 50 mg/kg [9] [%] | inhibition in vivo at 50 mg/kg [10] [%]
18 | 25.1 | 35.7 | 12.1 | 0.14 | 2 | O=C(C[C@]1(O)CC[C@@H](Cc2ccc(F)c(F)c2)CC1)Nc1ccc2[nH]c(=O)oc2c1 | – | – | – | – | –
19 | 25.1 | – | – | – | 6.31 | O=C(C[C@]1(O)CC[C@@H](Cc2ccc(C(F)(F)F)cc2)CC1)Nc1ccc2[nH]c(=O)oc2c1 | – | – | – | – | –
20 | 31.6 | 35.1 | 33 | 0.9 | 15.8 | O=C(C[C@]1(O)CC[C@H](Cc2ccccc2)CC1)Nc1ccc2[nH]c(=O)oc2c1 | 7.7 | – | – | – | –
21 | 25.1 | – | – | – | 3.16 | O=C(C[C@]1(O)CC[C@@H](Cc2ccc(Cl)cc2)CC1)Nc1ccc2[nH]c(=O)oc2c1 | – | – | – | – | –
22 | 31.6 | 16.5 | 28.2 | 0.11 | 15.8 | O=C1Cc2cc(NC(=O)C[C@]3(O)CC[C@@H](Cc4ccccc4)CC3)ccc2N1 | 12.1 | – | – | – | –
23 | 25.1 | 36.8 | 42.4 | 0.12 | 0.631 | O=C(C[C@]1(O)CC[C@@H](Cc2ccc(F)cc2)CC1)Nc1ccc2[nH]c(=O)oc2c1 | 26.1 | – | – | – | –
24 | 50.1 | 21 | 53.4 | 0.15 | 3.16 | O=C(C[C@]1(O)CC[C@@H](Cc2ccc(OC(F)(F)F)cc2)CC1)Nc1ccc2[nH]c(=O)oc2c1 | – | – | – | – | –
25 | 63.1 | 45.9 | 16 | 0.11 | 1 | COc1ccc(C[C@H]2CC[C@](O)(CC(=O)Nc3ccc4[nH]c(=O)oc4c3)CC2)cc1 | – | – | – | – | –
26 | 39.8 | 42.3 | 58 | 0.23 | 15.8 | O=C(C[C@]1(O)CC[C@H](Cc2ccc(F)cc2)CC1)Nc1ccc2[nH]c(=O)oc2c1 | 12.2 | – | – | – | –
27 | 31.6 | 37.1 | 30 | 1 | 3.16 | O=C(Nc1ccc2[nH]c(=O)oc2c1)C(=O)N1CCC(Cc2ccc(F)cc2)CC1 [RADIPRODIL] | – | – | – | – | –
